Data on 16 molecules can be found in PubChem BioAssay (NCI).

Each structure is given as a SMILES string.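 Following 48 hours of exposure in 96-well plates, responses at five concentrations were used to interpolate endpoints linearly. TGI is the concentration that stops growth completely.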

The first test deals with IGROV1 ovarian. Description: inhibition of tumour cell growth, NCI panel, 48 h.
`CC(/C=N\NC(=S)N1CCCCC1)=N/NC(=S)N1CCCCC1` came in with a TGI of 8.3 µM.
Consider `Cc1ccc(C(=O)N/N=C(\N=Nc2ccccc2[N+](=O)[O-])c2ccc(N(C)C)cc2)cc1`, for which the TGI was > 100 µM.
The same measure, in the same setting: next, `CC1C[C@]2(C)C(=O)Nc3ccccc3[C@@H]2Nc2ccccc21` (stereo not given in full): 78.2 µM.
On the same count and under the same terms, next, `CC(C)(C)C(=O)OC(N)/C=C/c1ccccc1` (stereo not given): > 100 µM; `O=c1c2c(-c3ccccc3)onc2n(-c2ccccc2)c(=O)n1-c1ccccc1`: 52.1 µM.

The test system of another test is KM12 colon. Description: inhibition of tumour cell growth, NCI panel, 48 h.
For the molecule `CC(CCC#N)(CCC#N)C(=O)CC(O)(C(F)(F)F)C(F)(F)F`, the TGI turned out to be 34.2 µM.
The same measure, in the same setting: the figure for `Cc1c(O)c(C)c2c(C)cn(C(=O)C(C)(C)C)c2c1C` is 27.2 µM; for `COc1ccc(-c2c(C#N)c(O)n(NS(=O)(=O)c3ccc(C)cc3)c(=O)c2C#N)cc1` it is > 100 µM.
As for `O=C1C[C@H]2[C@@H](O1)[C@@H](O)CN1C(=O)c3ccccc3[C@H]21`, the TGI is > 100 µM.
`CSc1nncc2[nH]c(C)nc12`: the TGI was > 100 µM.
Still for that read-out and setting: next, `COc1ccc(OC)c(N2C(=O)CSC2c2cc(OC)c(OC)c(OC)c2)c1` (stereo not given): > 100 µM; `COc1ccc(C(OC(C)=O)C2C(=C(C#N)C#N)c3ccccc3C2=C(C#N)C#N)cc1` (stereo not given): > 100 µM; `CCOC(=O)C1=C(N)Oc2ccc(Br)cc2C1C(C#N)C(=O)OCC` (stereo not given): 62.7 µM.
Still for that read-out and setting: next, `CC(=O)Nc1ccc(-c2nc3ccccc3s2)cc1`: > 100 µM.
Still for that read-out and setting: the figure for `COc1ccc(-c2nc(SCC(=O)N/N=C/c3ccc(O)c(OC)c3)[nH]c2-c2ccc(OC)cc2)cc1` is > 100 µM.
Consider `CCOP(=O)(O)C(C)(C)NC`, for which the TGI was > 100 µM.
As for `CC(/C=N\NC(=S)N1CCCCC1)=N/NC(=S)N1CCCCC1`, the TGI is 13.7 µM.
Take `Cc1ccc(C(=O)N/N=C(\N=Nc2ccccc2[N+](=O)[O-])c2ccc(N(C)C)cc2)cc1`: the TGI is > 100 µM.
Still for that read-out and setting: next, `CC1C[C@]2(C)C(=O)Nc3ccccc3[C@@H]2Nc2ccccc21` (stereo not given in full): 39.1 µM.
Same read-out and setting: next, `CC(C)(C)C(=O)OC(N)/C=C/c1ccccc1` (stereo not given): > 100 µM; `O=c1c2c(-c3ccccc3)onc2n(-c2ccccc2)c(=O)n1-c1ccccc1`: 37 µM.

A further test deals with M14 melanoma. Description: inhibition of tumour cell growth, NCI panel, 48 h.
`CC(CCC#N)(CCC#N)C(=O)CC(O)(C(F)(F)F)C(F)(F)F` gave a TGI of 4.81 µM.
In turn, `Cc1c(O)c(C)c2c(C)cn(C(=O)C(C)(C)C)c2c1C` had a TGI of 30.5 µM.
`COc1ccc(-c2c(C#N)c(O)n(NS(=O)(=O)c3ccc(C)cc3)c(=O)c2C#N)cc1`: the TGI was > 100 µM.
On to `O=C1C[C@H]2[C@@H](O1)[C@@H](O)CN1C(=O)c3ccccc3[C@H]21`, for which the TGI was > 100 µM.
Turning to `CSc1nncc2[nH]c(C)nc12`, the TGI is > 100 µM.
Turning to `COc1ccc(OC)c(N2C(=O)CSC2c2cc(OC)c(OC)c(OC)c2)c1` (stereo not given), the TGI is > 100 µM.
Still for that read-out and setting: the figure for `COc1ccc(C(OC(C)=O)C2C(=C(C#N)C#N)c3ccccc3C2=C(C#N)C#N)cc1` (stereo not given) is > 100 µM; for `CCOC(=O)C1=C(N)Oc2ccc(Br)cc2C1C(C#N)C(=O)OCC` (stereo not given) it is > 100 µM; for `CC(=O)Nc1ccc(-c2nc3ccccc3s2)cc1` it is > 100 µM.
Consider `COc1ccc(-c2nc(SCC(=O)N/N=C/c3ccc(O)c(OC)c3)[nH]c2-c2ccc(OC)cc2)cc1`, for which the TGI came to 56.6 µM.
Regarding `CCOP(=O)(O)C(C)(C)NC`, the TGI was > 100 µM.
Same read-out and setting: the figure for `CC(/C=N\NC(=S)N1CCCCC1)=N/NC(=S)N1CCCCC1` is 5.51 µM; for `Cc1ccc(C(=O)N/N=C(\N=Nc2ccccc2[N+](=O)[O-])c2ccc(N(C)C)cc2)cc1` it is > 100 µM; for `CC1C[C@]2(C)C(=O)Nc3ccccc3[C@@H]2Nc2ccccc21` (stereo not given in full) it is 55.3 µM.
Still for that read-out and setting: next, `CC(C)(C)C(=O)OC(N)/C=C/c1ccccc1` (stereo not given): > 100 µM; `O=c1c2c(-c3ccccc3)onc2n(-c2ccccc2)c(=O)n1-c1ccccc1`: 49.7 µM.

The next test has as its system MOLT-4 leukemia. Description: inhibition of tumour cell growth, NCI panel, 48 h.
As to `CC(CCC#N)(CCC#N)C(=O)CC(O)(C(F)(F)F)C(F)(F)F`, the TGI turned out to be 2.8 µM.
For the molecule `Cc1c(O)c(C)c2c(C)cn(C(=O)C(C)(C)C)c2c1C`, the TGI stood at 55.2 µM.
Still for that read-out and setting: next, `COc1ccc(-c2c(C#N)c(O)n(NS(=O)(=O)c3ccc(C)cc3)c(=O)c2C#N)cc1`: 66.1 µM; `O=C1C[C@H]2[C@@H](O1)[C@@H](O)CN1C(=O)c3ccccc3[C@H]21`: > 100 µM.
`CSc1nncc2[nH]c(C)nc12`: the TGI was > 100 µM.
The same measure, in the same setting: the figure for `COc1ccc(OC)c(N2C(=O)CSC2c2cc(OC)c(OC)c(OC)c2)c1` (stereo not given) is > 100 µM; for `COc1ccc(C(OC(C)=O)C2C(=C(C#N)C#N)c3ccccc3C2=C(C#N)C#N)cc1` (stereo not given) it is 99.8 µM; for `CCOC(=O)C1=C(N)Oc2ccc(Br)cc2C1C(C#N)C(=O)OCC` (stereo not given) it is 90.9 µM.
For the molecule `CC(=O)Nc1ccc(-c2nc3ccccc3s2)cc1`, the TGI was > 100 µM.
The same measure, in the same setting: next, `CCOP(=O)(O)C(C)(C)NC`: > 100 µM; `CC(/C=N\NC(=S)N1CCCCC1)=N/NC(=S)N1CCCCC1`: > 100 µM; `Cc1ccc(C(=O)N/N=C(\N=Nc2ccccc2[N+](=O)[O-])c2ccc(N(C)C)cc2)cc1`: > 100 µM.
For the molecule `CC1C[C@]2(C)C(=O)Nc3ccccc3[C@@H]2Nc2ccccc21` (stereo not given in full), the TGI came to 59.2 µM.
`CC(C)(C)C(=O)OC(N)/C=C/c1ccccc1` (stereo not given): the TGI is > 100 µM.
Turning to `O=c1c2c(-c3ccccc3)onc2n(-c2ccccc2)c(=O)n1-c1ccccc1`, the TGI was > 100 µM.

Another test deals with NCI-H226 lung. The test can be described thus: inhibition of tumour cell growth, NCI panel, 48 h.
In turn, `CC(CCC#N)(CCC#N)C(=O)CC(O)(C(F)(F)F)C(F)(F)F` returned a TGI of 45.3 µM.
The same measure, in the same setting: next, `Cc1c(O)c(C)c2c(C)cn(C(=O)C(C)(C)C)c2c1C`: 33.5 µM; `COc1ccc(-c2c(C#N)c(O)n(NS(=O)(=O)c3ccc(C)cc3)c(=O)c2C#N)cc1`: > 100 µM.
As to `O=C1C[C@H]2[C@@H](O1)[C@@H](O)CN1C(=O)c3ccccc3[C@H]21`, the TGI is > 100 µM.
Same read-out and setting: next, `CSc1nncc2[nH]c(C)nc12`: > 100 µM; `COc1ccc(OC)c(N2C(=O)CSC2c2cc(OC)c(OC)c(OC)c2)c1` (stereo not given): > 100 µM; `COc1ccc(C(OC(C)=O)C2C(=C(C#N)C#N)c3ccccc3C2=C(C#N)C#N)cc1` (stereo not given): > 100 µM.
The same measure, in the same setting: next, `CCOC(=O)C1=C(N)Oc2ccc(Br)cc2C1C(C#N)C(=O)OCC` (stereo not given): 35.3 µM; `CC(=O)Nc1ccc(-c2nc3ccccc3s2)cc1`: > 100 µM; `CCOP(=O)(O)C(C)(C)NC`: > 100 µM.
Turning to `CC(/C=N\NC(=S)N1CCCCC1)=N/NC(=S)N1CCCCC1`, the TGI is 2.6 µM.
For the molecule `Cc1ccc(C(=O)N/N=C(\N=Nc2ccccc2[N+](=O)[O-])c2ccc(N(C)C)cc2)cc1`, the TGI is > 100 µM.
Still for that read-out and setting: next, `CC1C[C@]2(C)C(=O)Nc3ccccc3[C@@H]2Nc2ccccc21` (stereo not given in full): 76.1 µM; `CC(C)(C)C(=O)OC(N)/C=C/c1ccccc1` (stereo not given): > 100 µM; `O=c1c2c(-c3ccccc3)onc2n(-c2ccccc2)c(=O)n1-c1ccccc1`: 71 µM.

Another test has as its system NCI-H23 lung. The test can be described thus: inhibition of tumour cell growth, NCI panel, 48 h.
As for `CC(CCC#N)(CCC#N)C(=O)CC(O)(C(F)(F)F)C(F)(F)F`, the TGI is 19.6 µM.
Molecule `Cc1c(O)c(C)c2c(C)cn(C(=O)C(C)(C)C)c2c1C` displayed a TGI of 41.6 µM.
The same measure, in the same setting: next, `O=C1C[C@H]2[C@@H](O1)[C@@H](O)CN1C(=O)c3ccccc3[C@H]21`: > 100 µM.
